Legend:
MMP-9 = molecular target: T1, MMP-9 (Homo sapiens, UniProt P14780); test: Inhibition assay against MMP-9 (fluorescent MCA-labeled substrate); type: biochemical; settings: active MMP at 20 nM, 37° C., 1.5 hours
T1 construct: Both enzymes were commercially available as active forms (Yagai-Cosmobio); purchased Yagai-Cosmobio
Experimental: (§1) Both enzymes were commercially available as active forms (Yagai-Cosmobio) and were used for inhibition assays.
(§2) Enzymatic assays were performed in accordance with C. G. Knight's method (FEBS Lett., 296(3), 263-266 (1992)). The fluorescent MCA-labeled substrate, (7-methoxycumaline-4-yl)-Pro-Leu-Gly-Leu-L-[N-(2,4-dinitrophenyl)-L-2,3-diaminopropionyl]-Ala-Arg-NH2 (Peptide Institute. Inc.) was used for measuring the kinetics of inhibition for each tested compound.
(§3) The substrate was incubated at 37° C. for 1.5 hours (MMP-1; for 24 hours) with active MMP (at 20 nM, except MMP-13 at 5 nM) and a test compound in assay buffer containing 100 mM Tris-HCl (pH7.5), 10 mM CaCl2, 100 MM NaCl and 0.05% Brij-35.

[1] = tested on: TNF-α release from RAW 267.4; test: Inhibition ELISA for Tumor Necrosis Factor-α (TNF-α) release, LPS-stimulated RAW 267.4 cells; type: cell-based; settings: Mus musculus, RAW267.4, LPS-stimulated RAW 267.4, 24 hours, read-out: Inhibition of TNF production at 5 μM
Experimental: RAW 267.4 (derived from mouse monocytes) was seeded in RPMI1640 containing 10% of FBS (GIBCO BRL) at 100 μL/well (5×10^5 cells/mL) onto 96-well microplates and cultured at 37° C., 5% CO2. After culturing for 4 hours, each test compound diluted in RPMI1640 was added at 50 μL/well. 15 minutes later, […] LPS (DIFCO) diluted in RPMI1640 was added at 50 μL/well and cultured for 24 hours.
TNF-α produced was measured by ELISA as usual. (For example; J. Cellular Physiol. 154, 479 (1993)) Absorbance at 450 nm (normalized at 620 nm) was measured and percentage of the amount of TNF-α release for each tested compound (n=2) was determined (0% for untreated control (n=4), and 100% for LPS stimulation (n=4)).

MMP-2 = molecular target: T2, MMP-2 (Homo sapiens, UniProt P08253); test: Inhibition assay against MMP-2 (fluorescent MCA-labeled substrate); type: biochemical; settings: active MMP at 20 nM, 37° C., 1.5 hours
T2 construct: Both enzymes were commercially available as active forms (Yagai-Cosmobio); purchased Yagai-Cosmobio
T2 sequence (P08253 110-660): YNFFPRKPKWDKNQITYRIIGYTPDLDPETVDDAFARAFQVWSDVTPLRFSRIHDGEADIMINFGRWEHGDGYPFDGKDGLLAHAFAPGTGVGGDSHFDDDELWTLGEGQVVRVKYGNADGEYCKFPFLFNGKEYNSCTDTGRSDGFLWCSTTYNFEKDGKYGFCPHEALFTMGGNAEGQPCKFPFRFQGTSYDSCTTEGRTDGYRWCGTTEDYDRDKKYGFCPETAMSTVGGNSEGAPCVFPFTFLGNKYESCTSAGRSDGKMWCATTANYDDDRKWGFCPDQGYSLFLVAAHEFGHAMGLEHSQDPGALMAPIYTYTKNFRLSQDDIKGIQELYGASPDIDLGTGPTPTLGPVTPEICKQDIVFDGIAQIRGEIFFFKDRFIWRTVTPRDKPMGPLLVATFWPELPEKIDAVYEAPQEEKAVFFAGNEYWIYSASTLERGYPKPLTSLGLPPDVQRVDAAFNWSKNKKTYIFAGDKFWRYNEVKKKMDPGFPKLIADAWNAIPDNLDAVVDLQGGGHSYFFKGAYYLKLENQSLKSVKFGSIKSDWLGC
Experimental: as §1, §2, §3

[2] = molecular target: T3, MMP-13 (Matrix Metalloproteinase-13, Collagenase-3) (Homo sapiens, UniProt P45452); test: Inhibition assay against MMP-13 (fluorescent MCA-labeled substrate); type: biochemical; settings: Table 10; active MMP-13 at 5 nM, 37° C., 1.5 hours; read-out: IC50 MMP13
T3 construct: made in house; host or cells: E. coli BL21 (DE3), pET11a
From the text: To subclone C-terminal truncated form of procollagenase-3 (proMMP-13) cDNA (J.Biol.Chem., 269(24), 16766-16773 (1994)), two synthetic oligonucleotide primer (5′-[…]-3′ and 5′-[…]-3′: the former incorporates sequences for a unique NdeI site (underlined) including initial methionine, and the latter has sequences for a stop codon and BamHI site (underlined)) were used with human chondrocyte cDNA library (CLONTECH) in PCR. With these primers and Pfu DNA polymerase (STRATAGENE) in PCR, 767 bp fragment was generated, which encodes 84 amino acid prosequence and 164 amino acids of mature MMP-13. The fragment was digested with NdaI and BamHI, ligated into the NdeI and BamHI sites of pET11a (STRATAGENE), transformed in E.coli BL21 (DE3) and cultured. The crude cell extract was prepared as described in Biochemistry. The extract was dialyzed against 20 mM Tris-HCl(pH7.2)/5 mM CaCl2/0.02% NaN3 and applied to a SP-Sepharose HP column (1.6×10 cm, Amersham-Pharmacia Biotech), and elution was performed with 50 mL linear gradient of 0 to 0.3 M NaCl (partially purified proMMP-13 was eluted at 0.2 M approximately). The fraction was dialyzed against 20 mM Tris-HCl(pH7.9)/5 mM CaCl2,/200 mM (NH4)2SO4/0.02% NaN3 and applied to a Phenyl Sepharose HP column (1.6×5 cm, Amersham-Pharmacia Biotech), and elution was performed with 20 mL linear gradient of 0.2 to 0 M (NH4)2SO4 (pure proHMP-13 was eluted at 50 mM approximately). The fraction was concentrated by YM-5 ultrafiltration membrane and activated with 4-aminophenylmercuric acetate and active MMP-13 was separated from propeptide fragments by gel filtration chromatography as described in Biochemistry.
as §2, §3

[3] = molecular target: T4, MMP-3 (Matrix Metalloproteinase-3, Stromelysin-1) (Homo sapiens, UniProt P08254); test: Inhibition assay against MMP-3 (fluorescent MCA-labeled substrate); type: biochemical; settings: Table 10; active MMP at 20 nM, 37° C., 1.5 hours; read-out: IC50 MMP3
T4 construct: C-terminal truncated form of human prostromelysin cDNA; made in house; host or cells: E. coli
Experimental: C-terminal truncated form of human prostromelysin cDNA (proMMP-3, cDNA sequence in Nature, 348, 699-704 (1990)) was subcloned, expressed in E.coli and purified as described previously (Biochemistry 30, 6476-6483 (1991)). Activation of proMMP-3 was achieved by treatment with 1 mM 4-aminophenylmercuric acetate at 37° C. for 60 min.
as §2, §3

T1 sequence (P14780 107-707 limits assumed, species assumed): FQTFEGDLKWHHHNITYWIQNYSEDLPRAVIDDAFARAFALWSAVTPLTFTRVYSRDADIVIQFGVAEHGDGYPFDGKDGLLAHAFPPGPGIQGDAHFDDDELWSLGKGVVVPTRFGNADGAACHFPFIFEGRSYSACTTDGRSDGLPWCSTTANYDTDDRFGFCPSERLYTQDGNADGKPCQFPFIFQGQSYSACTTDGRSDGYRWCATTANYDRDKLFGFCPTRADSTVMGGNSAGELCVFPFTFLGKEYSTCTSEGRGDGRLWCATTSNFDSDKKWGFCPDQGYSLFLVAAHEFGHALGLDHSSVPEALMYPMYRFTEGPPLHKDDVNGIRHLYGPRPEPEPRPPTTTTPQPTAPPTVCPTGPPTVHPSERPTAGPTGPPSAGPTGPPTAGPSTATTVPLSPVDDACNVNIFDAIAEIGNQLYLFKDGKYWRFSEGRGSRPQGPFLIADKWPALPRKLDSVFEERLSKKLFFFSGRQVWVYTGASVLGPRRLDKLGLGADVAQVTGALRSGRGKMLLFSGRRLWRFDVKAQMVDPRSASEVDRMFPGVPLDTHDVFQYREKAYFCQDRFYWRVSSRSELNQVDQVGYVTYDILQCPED
T4 sequence (P08254 100-272 limits assumed): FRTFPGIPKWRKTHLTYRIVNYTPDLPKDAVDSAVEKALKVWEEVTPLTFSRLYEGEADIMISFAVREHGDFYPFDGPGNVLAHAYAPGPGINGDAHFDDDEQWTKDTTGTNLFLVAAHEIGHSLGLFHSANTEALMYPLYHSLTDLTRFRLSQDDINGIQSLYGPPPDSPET

| SMILES | IC50 (MMP-9) [nM] | inhibition at 5 µM [1] [%] | IC50 (MMP-2) [nM] | IC50 [2] [nM] | IC50 [3] [nM] |
| --- | --- | --- | --- | --- | --- |
| COc1ccc(C2SCC(=O)N2[C@@H](CC(C)C)C(=O)NO)cc1 (stereo partly drawn) [Example 21, 3-[(1S)-(N-Hydroxyaminocarbonyl)-3-methylbutyl]-2-(4-methoxyphenyl)-1,3-thiazolidine-4-one] | > 1000 | – | – | – | – |
| COc1ccc(/C=C2\Sc3ccccc3N(CC(=O)NO)C2=O)cc1 [Example 365, 2H-2(Z)-(4-Methoxybenzylidene)-1,4-benzothiazin-3(4H)-one-4-yl-acetic Acid N-Hydroxylamide] | 110 | 20 | 320 | – | – |
| O=C(CN1C(=O)/C(=C/c2ccc(Oc3ccccc3)cc2)Sc2ccccc21)NO [Example 368] | < 10 | 30 | 300 | 36 | 1500 |
| CCCCOc1ccc(C=C2Sc3ccccc3N(CC(=O)NO)C2=O)cc1 [Example 369] | 200 | – | > 1000 | – | – |

Reference: patent publication US6713477B1, “Hydroxamic acid derivatives” (Sumitomo Pharmaceuticals Company, Limited, priority 2000, dated 2004)
